Data: PubChem BioAssay (NCI)
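Tested at 5 concentrations; 48 h exposure; 96-well plates; endpoints linearly interpolated, else capped at highest concentration. TGI: total growth inhibition.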

What was measured:
Test in all cases: DTP human tumour cell line panel, 48 h
HCT-15 colon = test system: HCT-15 colon
SF-539 CNS = test system: SF-539 CNS
DMS 273 small cell lung = test system: DMS 273 small cell lung
HCT-116 colon = test system: HCT-116 colon
U251 CNS = test system: U251 CNS
OVCAR-3 ovarian = test system: OVCAR-3 ovarian
NCI-H23 lung = test system: NCI-H23 lung
OVCAR-8 ovarian = test system: OVCAR-8 ovarian
KM20L2 colon = test system: KM20L2 colon
HOP-92 NSCLC = test system: HOP-92 NSCLC
IGROV1 ovarian = test system: IGROV1 ovarian
NCI-H522 lung = test system: NCI-H522 lung
TK-10 renal = test system: TK-10 renal
NCI-H226 lung = test system: NCI-H226 lung
SNB-19 CNS = test system: SNB-19 CNS
HT29 colon = test system: HT29 colon
SR leukemia = test system: SR leukemia
SW-620 colon = test system: SW-620 colon
DLD-1 colon = test system: DLD-1 colon
RXF 393 renal = test system: RXF 393 renal
SK-MEL-28 melanoma = test system: SK-MEL-28 melanoma
UACC-62 melanoma = test system: UACC-62 melanoma
K-562 leukemia = test system: K-562 leukemia
UO-31 renal = test system: UO-31 renal
A549 NSCLC = test system: A549 NSCLC
UACC-257 melanoma = test system: UACC-257 melanoma
LXFL 529 NSCLC = test system: LXFL 529 NSCLC
HL-60(TB) leukemia = test system: HL-60(TB) leukemia
RPMI-8226 leukemia = test system: RPMI-8226 leukemia
SN12C renal = test system: SN12C renal
MALME-3M melanoma = test system: MALME-3M melanoma
CCRF-CEM leukemia = test system: CCRF-CEM leukemia
M19-MEL melanoma = test system: M19-MEL melanoma
DMS 114 small cell lung = test system: DMS 114 small cell lung
LOX IMVI melanoma = test system: LOX IMVI melanoma
SNB-78 CNS = test system: SNB-78 CNS
EKVX NSCLC = test system: EKVX NSCLC
SF-295 CNS = test system: SF-295 CNS
OVCAR-5 ovarian = test system: OVCAR-5 ovarian
M14 melanoma = test system: M14 melanoma
NCI-H460 lung = test system: NCI-H460 lung
SK-MEL-5 melanoma = test system: SK-MEL-5 melanoma
ACHN renal = test system: ACHN renal
HCC-2998 colon = test system: HCC-2998 colon
OVCAR-4 ovarian = test system: OVCAR-4 ovarian
SNB-75 CNS = test system: SNB-75 CNS
HOP-62 NSCLC = test system: HOP-62 NSCLC
SK-MEL-2 melanoma = test system: SK-MEL-2 melanoma
A498 renal = test system: A498 renal
MOLT-4 leukemia = test system: MOLT-4 leukemia
COLO 205 colon = test system: COLO 205 colon
SF-268 CNS = test system: SF-268 CNS
XF 498 CNS = test system: XF 498 CNS
786-0 renal = test system: 786-0 renal
SK-OV-3 ovarian = test system: SK-OV-3 ovarian
HOP-18 NSCLC = test system: HOP-18 NSCLC
CAKI-1 renal = test system: CAKI-1 renal

O=C(CC(C(=O)c1ccsc1)c1cccs1)c1cccs1 (stereo not drawn)
TGI (HCT-15 colon): > 100 µM
TGI (SF-539 CNS): > 100 µM
TGI (DMS 273 small cell lung): > 100 µM
TGI (HCT-116 colon): > 100 µM
TGI (U251 CNS): > 100 µM
TGI (OVCAR-3 ovarian): > 100 µM
TGI (NCI-H23 lung): > 100 µM
TGI (OVCAR-8 ovarian): > 100 µM
TGI (KM20L2 colon): > 100 µM
TGI (HOP-92 NSCLC): > 100 µM
TGI (IGROV1 ovarian): > 100 µM
TGI (NCI-H522 lung): > 100 µM
TGI (TK-10 renal): > 100 µM
TGI (NCI-H226 lung): > 100 µM
TGI (SNB-19 CNS): > 100 µM
TGI (HT29 colon): > 100 µM
TGI (SR leukemia): > 100 µM
TGI (SW-620 colon): > 100 µM
TGI (DLD-1 colon): > 100 µM
TGI (RXF 393 renal): > 100 µM
TGI (SK-MEL-28 melanoma): > 100 µM
TGI (UACC-62 melanoma): > 100 µM
TGI (K-562 leukemia): > 100 µM
TGI (UO-31 renal): 92.7 µM
TGI (A549 NSCLC): > 100 µM
TGI (UACC-257 melanoma): > 100 µM
TGI (LXFL 529 NSCLC): > 100 µM
TGI (HL-60(TB) leukemia): > 100 µM
TGI (RPMI-8226 leukemia): > 100 µM
TGI (SN12C renal): > 100 µM
TGI (MALME-3M melanoma): > 100 µM
TGI (CCRF-CEM leukemia): > 100 µM
TGI (M19-MEL melanoma): > 100 µM
TGI (DMS 114 small cell lung): > 100 µM
TGI (LOX IMVI melanoma): > 100 µM
TGI (SNB-78 CNS): > 100 µM
TGI (EKVX NSCLC): > 100 µM
TGI (SF-295 CNS): > 100 µM
TGI (OVCAR-5 ovarian): > 100 µM
TGI (M14 melanoma): > 100 µM
TGI (NCI-H460 lung): > 100 µM
TGI (SK-MEL-5 melanoma): 85.6 µM
TGI (ACHN renal): > 100 µM
TGI (HCC-2998 colon): > 100 µM
TGI (OVCAR-4 ovarian): > 100 µM
TGI (SNB-75 CNS): > 100 µM
TGI (HOP-62 NSCLC): > 100 µM
TGI (SK-MEL-2 melanoma): > 100 µM
TGI (A498 renal): > 100 µM
TGI (MOLT-4 leukemia): > 100 µM
TGI (COLO 205 colon): > 100 µM
TGI (SF-268 CNS): > 100 µM
TGI (XF 498 CNS): > 100 µM
TGI (786-0 renal): > 100 µM
TGI (SK-OV-3 ovarian): > 100 µM

CCOC(=O)C1=C(C)N(NC(=O)Nc2ccccc2)C2(N)N(NC(=O)Nc3ccccc3)C(C)=C(C(=O)OCC)C12C#N (stereo not drawn)
TGI (HCT-15 colon): 37.1 µM
TGI (HOP-18 NSCLC): 34.3 µM
TGI (DMS 273 small cell lung): 31.3 µM
TGI (HCT-116 colon): 31.2 µM
TGI (U251 CNS): 32.3 µM
TGI (OVCAR-3 ovarian): 32.2 µM
TGI (NCI-H23 lung): 43.9 µM
TGI (OVCAR-8 ovarian): 33.4 µM
TGI (KM20L2 colon): 33.4 µM
TGI (HOP-92 NSCLC): 39.4 µM
TGI (IGROV1 ovarian): 36.6 µM
TGI (NCI-H522 lung): 33.1 µM
TGI (TK-10 renal): 49.3 µM
TGI (NCI-H226 lung): 36.1 µM
TGI (HT29 colon): 38.1 µM
TGI (SW-620 colon): 36.2 µM
TGI (DLD-1 colon): 34.1 µM
TGI (RXF 393 renal): 27.7 µM
TGI (SK-MEL-28 melanoma): 32.1 µM
TGI (UACC-62 melanoma): 32.2 µM
TGI (K-562 leukemia): 48.2 µM
TGI (UO-31 renal): > 100 µM
TGI (A549 NSCLC): > 100 µM
TGI (UACC-257 melanoma): 38.5 µM
TGI (LXFL 529 NSCLC): 32.6 µM
TGI (CAKI-1 renal): 40.1 µM
TGI (RPMI-8226 leukemia): 50.5 µM
TGI (SN12C renal): 33 µM
TGI (MALME-3M melanoma): 30.6 µM
TGI (CCRF-CEM leukemia): 71.9 µM
TGI (M19-MEL melanoma): 31.6 µM
TGI (DMS 114 small cell lung): 32.9 µM
TGI (LOX IMVI melanoma): 34 µM
TGI (SNB-78 CNS): 37.6 µM
TGI (OVCAR-5 ovarian): 32.4 µM
TGI (M14 melanoma): 34.6 µM
TGI (NCI-H460 lung): 33.1 µM
TGI (ACHN renal): 51.4 µM
TGI (HCC-2998 colon): 33.9 µM
TGI (OVCAR-4 ovarian): 31.5 µM
TGI (SNB-75 CNS): 36.6 µM
TGI (SK-MEL-2 melanoma): 30.2 µM
TGI (A498 renal): 45 µM
TGI (MOLT-4 leukemia): 56.8 µM
TGI (COLO 205 colon): 32.6 µM
TGI (SF-268 CNS): 42.8 µM
TGI (786-0 renal): 32.4 µM
TGI (SK-OV-3 ovarian): 52.1 µM
